Results on one substance are retold here after patent publication US4910021A, “Targeted enternal delivery system” (priority 1985, dated 1990).

Where two headings read alike, the source gives them in different places.

For series [1] the following is noted: rectal, dogs, cited from earlier work.
The subject of series [2] is blood glucose. The series is described as follows: Hypoglycemia effect in rats after oral (coated capsules) or intraperitoneal insulin. Format: in vivo, rat (Hebrew University strain male rats). Also on record: AUC (area under the % glucose reduction versus time curve): unit not given beside the values. The settings on record: i.p., 4 iu, 15 iu kg^-1, rats.
In series [3] the test system is rats. The following applies: intrajejunal injection in presence of Cetamacrogol 1000, rats; cited from earlier work.

The bioavailability is the share of a dose that reaches the circulation, judged against a reference dose that is usually intravenous. As for “insulin: porcine insulin Leo Neutral 100 iu ml^-1 (Nordisk Gentofte); i.p. 4 iu neutral insulin”, the bioavailability in series [1] (before improvement by post-administration of promoter) is recorded as 19.4%. Besides, the bioavailability in series [1] (with post-administration of promoter (enamine)) is listed as 38.2%. Moreover, in series [2], the “AUC (area under the % glucose reduction versus time curve)” value was determined as 258, the “Cmax (maximum % glucose reduction)” value is 58% and the “tmax (time of the maximum effect)” value was 2 h. For the same substance, in series [3], the hypoglycemia result was “significant hypoglycemia”.
